Experimental data from patent US10828275B2, “Selective targeting of procoagulant platelets” (NewSouth Innovations Pty Limited, priority 2014, dated 2020).
Residues, ends and D or L forms follow the SMILES beside them. *: point of attachment. Cbz = O=C(OCc1ccccc1)*; CH2F = FC*

Legend:
[1] = system: washed human platelets; assay: ABT-737 induced platelet apoptosis and pancaspase inhibition (flow cytometry); format: cell-based
Procedure: FIG. 4. Labeling with GSAO and exposure of P-selectin distinguishes necrotic from apoptotic platelets. […] The percentage of GSAO+ platelets are graphed with respect to P-selectin exposure. C. Washed human platelets were preincubated with 200 μM of ZVADFMK or vehicle control for 15 min then incubated with 30 μM of ABT-737 for 2 h (part F), or stimulated with thrombin (0.1 units/mL) and collagen (5 μg/mL) for 10 min (part G). Labeling with GSAO-AF647 and exposure of P-selection was measured by flow cytometry. D. Washed human platelets from healthy donors (n=5-11) were untreated or stimulated with thrombin (0.1 units/mL), collagen (5 μg/mL), or thrombin (0.1 units/mL) and collagen (5 μg/mL) for 10 min. […] The error bars are mean±SD.
Bcl-XL dependent apoptosis is involved in regulation of platelet life span, although the role of platelet apoptosis in thrombosis is controversial. In order to determine if GSAO can differentiate agonist-induced necrotic versus apoptotic platelets, platelet apoptosis was triggered using the BH3 mimetic ABT-737. GSAO labelled P-selectin negative apoptotic platelets (FIGS. 4A and B). The GSAO+ population also labeled with a polycaspase marker and annexin V, both indicators of apoptotic cells. […] Washed platelets from healthy donors were untreated or stimulated with thrombin, collagen or thrombin and collagen and examined for apoptosis (GSAO+/P-selectin−) and necrosis (GSAO+/P-selectin+) (FIG. 4D). These agonists trigger platelet necrosis but not apoptosis.

[2] = system: washed human platelets; assay: Direct mitochondrial membrane depolarization and GSAO labelling; format: cell-based; conditions: CCCP 4 μM
Source text: FIG. 9. Mitochondrial membrane disruption is not sufficient for GSAO labeling.
The cyclophilin D-dependent regulated necrosis pathway is characterized by agonist stimulation, raised intracellular calcium, formation of the mitochondrial transition pore and loss of mitochondrial membrane potential. Dual agonist stimulation of platelets results in loss of mitochondrial transmembrane potential (FIG. 5A). The onset of mitochondrial depolarisation (FIG. 5B) and phosphatidylserine exposure (FIG. 5C) are coincident with GSAO labeling.
Mitochondrial membrane potential was measured using the JC-1 cationic dye (5,5′,6,6′-tetrachloro-1,1′,3,3′-tetraethyl-imidacarbocyanine iodide, Sigma) (Life Technologies). Washed platelets were incubated with JC-1 (2 μM) for 30 min in the dark at 37° C., washed once and analyzed immediately on a BDFACS Canto II. On some occasions, washed platelets were incubated with the mitochondrial membrane disrupter 2-[2-(3-chlorophenyl)hydrazinylyidene]propanedinitrile (CCCP, 4 μM) for 10 min.

[3] = system: P-selectin+ activated platelets; assay: DIDS effect on GSAO-AF647 labelling of agonist-stimulated platelets (flow cytometry); format: cell-based, human; conditions: thrombin (0.1 units/mL) and collagen (5 μg/mL); 0-200 μM DIDS for 10 min; read-out: half-maximal concentration for inhibition of GSAO labelling of P-selectin+ activated platelets
Procedure: (§1) FIG. 2. GSAO rapidly enters the activated platelet subpopulation via an organic anion-transporting polypeptide. A. The kinetics of labeling of stimulated platelets with GSAO-AF647 was measured by time lapse flow cytometry. Flow plots are representative of n≥3 separate experiments, and bars and data points are from n≥3 separate experiments. *p<0.05, ****p<0.0001. B-C. […] DIDS inhibited GSAO labelling of P-selectin+ activated platelets at a half-maximal concentration of ˜30 μM. The data points and errors are the mean±range of 1-5 experiments.
The organic anion-transporting polypeptide (OATP) family has been implicated in transport across the plasma membrane of organic anions in the same class as GSAO (Dilda et al., 2009; Dilda et al., 2008). Nine members of the OATP family have been reported in humans (Hagenbuch et al., 2003) and platelets express OATP2B1 (Niessen et al., 2009). DIDS is an inhibitor of OATP class B transporters (Kobayashi et al. 2003) and the present inventors tested its effect on GSAO labelling of agonist-stimulated platelets. DIDS inhibited GSAO labelling of P-selectin+ activated platelets (FIG. 2B) at a half-maximal concentration of ˜30 μM (FIG. 2C). GSAO is retained in the platelet cytoplasm through covalent reaction with closely-spaced protein cysteine thiols (Park et al., 2011) (data not shown).

[4] = system: washed human platelets; assay: GSAO-AF647 labelling of thrombin and collagen stimulated platelets after preincubation; format: cell-based; conditions: CaCl2 preincubation 15 min
Procedure: FIG. 5. […] A. Washed human platelets were untreated or stimulated with thrombin (0.1 units/mL) and collagen (5 μg/mL) or the mitochondrial membrane disrupter CCCP (4 μM). Mitochondrial transmembrane potential was measured using the cationic dye, JC-1. The ratio of distribution of JC-1 between the mitochondria (red fluorescence) and cytosol (green fluorescence) reflects mitochondrial transmembrane potential. […] B-C. […] E. Washed human platelets were preincubated with CaCl2 for 15 min and then untreated or stimulated with thrombin (0.1 units/mL) and collagen (5 μg/mL).

[5] = system: platelets in human whole blood; assay: Whole blood assay for procoagulant platelet potential, human blood; format: cell-based; conditions: for proportion of procoagulant platelets (GSAO+/P-selectin+): thrombin 2 U/mL, collagen 10 μg/mL, mean±SEM, 16-35 donors
Source text: FIG. 12. Gating strategy for detection of procoagulant platelets in human whole blood. A. Platelets were identified as CD41a positive and CD45 negative events. B. Threshold values for P-selectin and GSAO fluorescence were set using agonist stimulated sample stained with control IgG isotype and GSCA respectively. C. At rest, very few platelets show the procoagulant phenotype (P-selectin+/GSAO+).
FIG. 13. Assay for procoagulant platelet potential in human blood. […] The maximal response (17.3±1.3%) was observed after stimulation with combination of thrombin and collagen. Results are mean±SEM from 16-35 donors. One-way ANOVA, […], Holm-Sidak multiple comparisons correction. *, p<0.05; ****, p<0.0001.
(§2) Blood from healthy human volunteers was drawn from an antecubital fossa vein using a 21-gauge needle into evacuated sterile collection tubes containing 0.109 M sodium citrate. Following no or minimal tourniquet application, the initial 2 mL of blood was discarded to avoid pre-analytical activation of platelets. The tube was gently mixed by inversion six times. Murine blood samples were collected by cardiac puncture under isoflurane anesthesia. Following midline abdominal and bilateral subcostal surgical incisions to expose the heart, blood was drawn from the left ventricle through a 25G needle into a 1 mL syringe containing sodium citrate (0.109 M) resulting in a blood to citrate ratio of 9:1. The needle was removed and the blood was gently expelled from the syringe into a sterile microcentrifuge tube and mixed gently by pipetting up and down 5 times.
Following collection, tubes were kept upright at room temperature and blood was assayed within 15 min of collection. Incubation and staining steps were performed in a sterile 96-well polypropylene plate. […]
(§3) Fixed cells were analyzed by flow cytometry 1 to 3 h after fixation at an average event rate of 2000 events per sec in an LSRFortessa flow cytometer, equipped with either four (405 nm, 488 nm, 561 nm and 640 nm) or five (395 nm) lasers (BD Biosciences). […]

[6] = system: stimulated platelets; assay: Kinetics of GSAO-AF647 labelling by time lapse flow cytometry; format: cell-based, human
Procedure: as §1
The rate of GSAO+ platelet generation after agonist exposure was measured using time lapse flow cytometry. Results are reported for GSAO+ events based on lead in time prior to agonist exposure threshold.

[7] = system: washed human platelets; assay: GSAO-AF647 labelling and P-selectin exposure of washed platelets (flow cytometry); format: cell-based; conditions: thrombin 0.1 units/mL, collagen 5 μg/mL
Procedure: FIG. 1. GSAO labels a subpopulation of activated platelets. A. Structure of GSAO and site of conjugation of AF647, Oregon Green or biotin. B. Washed human platelets were stimulated with calcium ionophore (1 μM) and activation and plasma membrane compromise measured by flow cytometry. […] C. […] E. Washed human platelets were stimulated with collagen or collagen-related peptide and co-labeling with P-selectin and GSAO-AF647 measured by flow cytometry.
Calcium ionophore treatment of platelets leads to a sustained rise in intracellular calcium and surface elaboration of phosphatidylserine, which are features of both the procoagulant and necrotic phenotype (Bevers et al., 1982). Washed human platelets were treated with calcium ionophore and labeled with GSAO-AF647 and an antibody against the α-granule marker, P-selectin.
To determine whether GSAO labeling reflects this agonist profile, washed human platelets were stimulated with thrombin, collagen, or both thrombin and collagen. […] To determine if signalling through the collagen receptor, GPVI, was sufficient to generate the GSAO+ phenotype, the maximal proportion of GSAO+ platelets generated by collagen was compared with the GPVI specific activator, collagen related peptide.
The relationship between the activated and procoagulant phenotype of platelets remains controversial (Dale et al., 2002; Abaeva et al., 2013). Procoagulant platelets are characterised by presence of phosphatidylserine on the platelet surface, surface binding of plasma derived activated clotting factors, ability to generate thrombin and promotion of fibrin formation. Regardless of the agonist stimulus, 100% of GSAO+ platelets were positive for α-granule P-selectin, which implies that α-granule release is a prerequisite for GSAO labeling after agonist stimulation (FIG. 1). […] Of note, a subpopulation of GSAO− platelets also bound annexin V so platelet necrosis is not required for exposure of phosphatidylserine.

[8] = system: platelets in mouse blood; assay: Whole blood assay for procoagulant platelet potential, mouse blood; format: cell-based; conditions: thrombin 2 U/mL, CRP 500 ng/mL; n=3 C57Bl6 bloods
Procedure: FIG. 14. Assay for procoagulant platelet potential in mouse blood. […] Bars and errors are mean±SEM of n=3 C57B16 bloods. One-way ANOVA. **, p<0.01; ****, p<0.0001.
as §2
Following collection, tubes were kept upright at room temperature and blood was assayed within 15 min of collection. […]
as §3

Molecule: CN(C)CC[C@H](CSc1ccccc1)Nc1ccc(S(=O)(=O)NC(=O)c2ccc(N3CCN(Cc4ccccc4-c4ccc(Cl)cc4)CC3)cc2)cc1[N+](=O)[O-] [ABT-737]
- platelet phenotype induced ([1]; ABT-737 for 2 h): induced GSAO+/P-selectin− platelets

Molecule: N#CC(C#N)=NNc1cccc(Cl)c1 [CCCP, 2-[2-(3-chlorophenyl)hydrazinylyidene]propanedinitrile]
- GSAO labelling after direct mitochondrial membrane depolarization [2]: does not result in GSAO labelling

Molecule: O=S(=O)(O)c1cc(N=C=S)ccc1C=Cc1ccc(N=C=S)cc1S(=O)(=O)O [DIDS]
- IC50 [3]: ~30 µM

Molecule: COC(=O)C[C@H](NC(=O)[C@H](C)NC(=O)[C@@H](NC(=O)OCc1ccccc1)C(C)C)C(=O)CF [ZVADFMK] (Cbz-Val-Ala-Asp(OMe)-CH2F)
- effect on ABT-737 induced GSAO+/P-selectin− platelets ([1]; 200 μM ZVADFMK 15 min, then 30 μM ABT-737 2 h): reduced
- effect on GSAO labeling of thrombin and collagen stimulated platelets ([1]; 200 μM ZVADFMK 15 min, then agonists 10 min): no effect

Molecule: [Ca] [calcium]
- effect of added calcium on GSAO+ agonist stimulated platelets [4]: promoted

Molecule: collagen
- proportion of procoagulant platelets (GSAO+/P-selectin+) [5]: 1.2±0.2%
- time course of GSAO labeling after agonist [6]: gradual increase in GSAO labeling over 60 sec
- GSAO+ platelets generated by agonist [7]: moderate proportion

Molecule: collagen related peptide
- potency as inducer of murine procoagulant platelets [8]: significantly less potent than thrombin but synergizes with thrombin
- GSAO+ platelets generated by agonist [7]: majority of the collagen effect was recapitulated

Molecule: thrombin
- potency as inducer of murine procoagulant platelets [8]: most potent inducer
- potency as inducer of procoagulant platelets in human blood [5]: most potent inducer
- proportion of procoagulant platelets (GSAO+/P-selectin+) [5]: 13.2±1.1%
- time course of GSAO labeling after agonist [6]: little GSAO labeling compared with unstimulated platelets
- GSAO+ platelets generated by agonist [7]: minimal GSAO+ platelets
